Laboratory results reported in patent publication US20090010873A1, “Methods of Cell Therapy, Neurogenesis and Oligodendrogenesis” (YEDA RESEARCH AND DEVELOPMENT CO. LTD., priority 2004, published 2009).

Columns and labels:
[1] = test system: neural progenitor cells (NPCs); test: NPCs co-cultured with microglia pre-activated by aggregated Aβ and cytokines (β-III-tubulin); type: cell-based, mouse; conditions: 10 days co-culture; Aβ 5 μM, IFN-γ 10 ng/ml
Experimental: (xlvi) Reagents. Recombinant mouse IFN-γ and IL-4 (both containing endotoxin at a concentration below 0.1 ng/μg cytokine) were obtained from R&D Systems (Minneapolis, Minn.). β-amyloid peptides [amyloid protein fragment 1-40 and 1-42 (Aβ1-40/1-42)] were purchased from Sigma-Aldrich, St. Louis, Mo. The Aβ peptides were dissolved in endotoxin-free water, and Aβ aggregates were formed by incubation of Aβ, as described (Ishii et al., 2000).
(li) Neural progenitor cell culture. Coronal sections (2 mm thick) of tissue containing the subventricular zone of the lateral ventricle were obtained from the brains of adult C57B1/6J mice. The tissue was minced and then incubated for digestion at 37° C., 5% CO2 for 45 min in Earle's balanced salt solution containing 0.94 mg/ml papain (Worthington, Lakewood, N.J.) and 0.18 mg/ml of L-cysteine and EDTA. After centrifugation at 110×g for 15 min at room temperature, the tissue was mechanically dissociated by pipette trituration. Cells obtained from single-cell suspensions were plated (3500 cells/cm^2) in 75-cm^2 Falcon tissue-culture flasks (BD Biosciences, San Diego, Calif.), in NPC-culturing medium [Dulbecco's modified Eagles's medium (DMEM)/F12 medium (Gibco/Invitrogen, Carlsbad, Calif.) containing 2 mM L-glutamine, 0.6% glucose, 9.6 μg/ml putrescine, 6.3 ng/ml progesterone, 5.2 ng/ml sodium selenite, 0.02 mg/ml insulin, 0.1 mg/ml transferrin, 2 μg/ml heparin (all from Sigma-Aldrich, Rehovot, Israel), fibroblast growth factor-2 (human recombinant, 20 ng/ml), and epidermal growth factor (human recombinant, 20 ng/ml; both from Peprotech, Rocky Hill, N.J.)]. Spheres were passaged every 4-6 days and replated as single cells. Green fluorescent protein (GFP)-expressing NPCs were obtained as previously described (Pluchino et al., 2003).
(lii) Primary microglial culture. Brains from neonatal (P0-P1) C57B1/6J mice were stripped of their meninges and minced with scissors under a dissecting microscope (Zeiss, Stemi DV4, Germany) in Leibovitz-15 medium (Biological Industries, Kibbutz Beit Ha-Emek, Israel). […]

[2] = test system: C57B1/6J mice with spinal cord injury; test: Spinal cord contusion in mice: motor recovery (Basso motor score) after immunization and aNPC transplantation; type: in vivo, mouse
[3] = test system: neural progenitor cells (NPCs); test: Oligodendrocyte differentiation of GFP-expressing NPCs co-cultured with differently activated microglia (NG2, RIP); type: cell-based, mouse; conditions: direct addition to NPCs, 500 ng/ml, no insulin
Experimental: (i) Neuralprogenitor cell (NPC) culture. Coronal sections (2 mm thick) of tissue containing the subventricular zone of the lateral ventricle were obtained from the brains of adult C57B16/J mice. The tissue was minced and then incubated for digestion at 37° C., 5% CO2 for 45 mine in Earle's balanced salt solution containing 0.94 mg/ml papain (Worthington, Lakewood, N.J.) and 0.18 mg/ml of L-cysteine and EDTA. After centrifugation at 110×g for 15 min at room temperature, the tissue was mechanically dissociated by pipette trituration. Cells obtained from single-cell suspensions were plated (3500 cells/cm^2) in 75-cm^2 Falcon tissue-culture flasks (BD Biosciences, Franklin Lakes, N.J.), in NPC-culturing medium [Dulbecco's modified Eagles's medium (DMEM)/F12 medium (Gibco/Invitrogen, Carlsbad, Calif.) containing 2 mM L-glutamine, 0.6% glucose, 9.6 μg/ml putrescine, 6.3 ng/ml progesterone, 5.2 ng/ml sodium selenite, 0.02 mg/ml insulin, 0.1 mg/ml transferrin, 2 μg/ml heparin (all from Sigma-Aldrich, Rehovot, Israel), fibroblast growth factor-2 (human recombinant, 20 ng/ml), and epidermal growth factor (human recombinant, 20 ng/ml; both from Peprotech, Rocky Hill, N.J.)]. Spheres were passaged every 4-6 days and replated as single cells. Green fluorescent protein (GFP)-expressing neural progenitor cells (NPCs) were obtained as previously described (Pluchino et al., 2003). […]

Aβ(1-40): aggregated amyloid protein fragment 1-40 used to activate microglia
GFP^+/βIIIT^+ cells (neurogenesis) with microglia activated by the agent [1]: blocked neurogenesis

Aβ(1-42): amyloid protein fragment 1-42 used to activate microglia
GFP^+/βIIIT^+ cells (neurogenesis) with microglia activated by the agent [1]: negative effect was not exhibited

MOG, residues 35-55 MEVGWYRSPFSRVVHLYRNGK (emulsified in CFA) [MOG/CFA, MOG peptide 35-55 emulsified in CFA containing 2.5% Mycobacterium tuberculosis]
BMS ([2]; MOG peptide 35-55 in CFA 2.5% M. tuberculosis one week prior to SCI, no aNPCs): 0.35±0.2

MOG/CFA/PBS: immunization with pMOG 35-55 in CFA, PBS i.c.v. instead of aNPCs (MEVGWYRSPFSRVVHLYRNGK; in CFA; UniProt Q61885 63-83, looked up, fragment)
mean motor recovery (BMS) score ([2]; immunization immediately after SCI (pMOG 35-55 or PBS in CFA 0.5% M. tuberculosis), aNPCs or PBS i.c.v. 1 week later, mean±SEM): 2.71±0.5

OVA/CFA/PBS: nonself protein ovalbumin (OVA) emulsified in CFA, PBS i.c.v.
BMS ([2]; ovalbumin in CFA 2.5% M. tuberculosis, aNPCs or PBS i.c.v.): 2.2±0.68

altered MOG peptide (45D) MEVGWYRSPFDRVVHLYRNGK [45D peptide, peptide analog of MOG 35-55 containing a serine to aspartic acid substitution]
BMS ([2]; immunization in CFA 2.5% M. tuberculosis 1 week before SCI, aNPCs i.c.v. 1 week after SCI, mean±SEM): 4.11±0.27 | BMS ([2]; immunization in CFA 2.5% M. tuberculosis 1 week before SCI, without aNPC transplantation): 2.57±0.24

rIGF-I: recombinant IGF-I
differentiation of NPCs to NG2-expressing cells [3]: significant differentiation to NG2-expressing cells
